Patent publication US9359196B2, “Antiproliferative compositions comprising curcumin analogs and methods of producing and using same” (The Board of Regents of the University of Oklahoma, priority 2009, dated 2016)

Experiments:
[1] = system: MiaPaCa-2 (pancreatic cancer) cells; experiment: Cell proliferation study in MiaPaCa-2 cells; assay type: cell-based
Description: (§1) Cell Culture and drug treatment: Human lung adenocarcinoma cell line NCI-H441 (ATCC Number: HTB-174) was obtained from the American Type Culture Collection (Manassas, Va.). H441 cells were maintained at 37° C. with 5% CO2 in McCoy's 5A Medium (Invitrogen, Carlsbad, Calif.) supplemented with 5% heat-inactivated fetal bovine serum (FBS). All media contained gentamicin at 50 μg/ml (GIBCO Laboratories, Grand Island, N.Y.). Other cells lines (PANC-1, MiaPaCa-2 and PC-3) were also similarly maintained, except that the cell culture medium was RPMI 1640 instead of McCoy's.
(§2) To evaluate the anti-proliferative activity of synthesized bis(2-fluorobenzylidene)-4-piperidone and its derivatives, the cells were seeded in 96-well flat-bottom tissue culture plates at a density of 10×10^3 cells per well. The cells were allowed to attach and grow overnight. The test compounds were solubilized in dimethyl sulfoxide (DMSO), filtered through 0.2 μm nylon filter and added to cells at 1, 10, 25 and 100 μM concentrations in culture medium supplemented with 5% FBS. […]
(§3) Cell Proliferation: The total number of cells after the treatment period was estimated by the hexosaminidase assay. […] The absorbance was measured at 405 nm. […] The data were analyzed as percent of control, where the control wells were treated with equivalent amounts of DMSO alone, and the analyzed data was presented as average±standard error of mean. […]

[2] = system: Human lung adenocarcinoma cell line NCI-H441; experiment: In vitro anti-proliferative activity in H441 cells (hexosaminidase), Example 2; assay type: cell-based
Description: (§4) Human lung adenocarcinoma cell line NCI-H441 (ATCC # HTB-174) and normal lung fibroblasts LL-24 (ATCC #CCL-151) were obtained from American Type Culture Collection (Manassas, Va.). The cells were maintained at 37° C. with 5% CO2 in RPMI 1640 medium (Invitrogen, Carlsbad, Calif.). The medium was supplemented with 10% heat-inactivated fetal bovine serum and 50 μg/ml of gentamicin (GIBCO Laboratories, Grand Island, N.Y.). For cell proliferation assay, the cells were seeded in 96-well flat-bottom tissue culture plates at a density of 0.5−1×10^4 cells per well. The cells were allowed to adhere and grow overnight, followed by treatment with CLEFMA or CLEFMA-liposomes. The concentration of CLEFMA was maintained in the range of 0.1-25 μM in 100 μl of RPMI 1640 medium. For comparison, the cells were also treated with 1 and 10 μM natural curcumin and EF24. EF24 is a potent synthetic curcuminoid and a close analog of CLEFMA [Adams et al., 2004]. All solutions of plain drugs were made in dimethylsulfoxide (DMSO). The concentration of DMSO in the treatment medium was maintained at 0.1%. The control wells received equivalent amounts of DMSO or phospholipid-matched control liposomes. Inhibition of cell proliferation was determined by measuring a decrease in hexosaminidase activity as described by Landegren [Landegren, 1984]. Para-nitrophenol-N-acetyl-beta-D-glucosaminide (60 μl per well) was used as the substrate for the hexosaminidase enzyme. The results of hexosaminidase assay were also confirmed by visualization of cultured cells under a microscope.

[3] = system: PANC-1 (pancreatic cancer) cells; experiment: Cell proliferation study in PANC-1 cells; assay type: cell-based
Description: as §1, §2, §3

[4] = system: normal lung fibroblasts LL-24; experiment: In vitro anti-proliferative activity in normal lung fibroblasts LL-24; assay type: cell-based; details: LL-24, identical treatment conditions (10 μM, 24 h)
Description: as §4, with “Para-nitrophenol-N-acetyl-beta-D-glucosaminide (60 μl per well) was used as the substrate for the hexosaminidase enzyme. The results of hexosaminidase assay were also confirmed by visualization of cultured cells under a microscope.” left out

[5] = system: PC-3 (prostate cancer) cells; experiment: Cell proliferation study in PC-3 cells; assay type: cell-based
Description: as §1, §2, §3

[6] = system: CCL-151 normal lung fibroblasts; experiment: Reactive oxygen species assay (DCFH-DA) in CCL-151 normal lung fibroblasts; assay type: cell-based
Description: Reactive oxygen species (ROS) assay: The CLEFMA-induced generation of ROS in H441 and CCL-151 cells was measured using the OxiSelect assay kit (Cell Biolabs, Inc., San Diego, Calif.). Briefly, the cells were cultured in 96-well plates, and the cell-permeable fluorogenic probe 2′,7′-dichlorodihydrofluorescin diacetate (DCFH-DA) was added to the wells and the plate was incubated for 30-60 min. The wells were washed thrice with PBS and treated with CLEFMA in culture medium for 24 and 48 h. After the incubation period, the medium was removed and the cells were gently washed 2-3 times with PBS, and the fluorescence, indicating ROS activity, was measured at 480 nm/530 nm (excitation/emission wavelengths) using the Cytoflour 2300 (Millipore, Billerica, Mass.).

[7] = system: caspase-3/7 activation in H441 cells; experiment: Caspase-3 immunoblotting and Apo-One caspase-3/7 assay in H441 cells; assay type: cell-based, human
H441 cells = experiment: GSH/GSSG assay in H441 cells; assay type: cell-based, human; details: 12 and 24 h
Description: Glutathione-to-glutathione disulfide (GSH/GSSG) assay: In order to assess the effect of CLEFMA on cellular GSH levels, a kit from Oxford Biomedical Research (Oxford, Mich.) was used and followed a modification of the method reported elsewhere (NCL Method GTA-3, Nanotechnology Characterization Lab, Frederick, Md.). H441 were seeded in a 12-well plate (1 million cells/well) and treated with CLEFMA for 12 and 24 h. The medium was removed and the cell layer was washed twice with ice-cold PBS. After adding 100 μl of ice-cold 5% m-phosphoric acid, the cells were scraped into a microfuge tube and centrifuged at 1000×g at 4° C. for 10 min. The supernatant was removed to a fresh tube for the GSSG and GSH assays. For the GSSG determination, approximately 30 μl supernatant was mixed with 20 μl thiol scavenger and 130 μl ice-cold assay buffer, and for the GSH assay, approximately 5 μl of the supernatant was diluted in 180 μl with ice-cold assay buffer. […] The plate was read in a microplate reader at 405-414 nm at 0 and 10 min after DTNB was added. The GSH and GSSG concentrations were determined following a linear regression analysis and normalized to total protein. The ratio (GSH−2GSSG)/GSSG was calculated and expressed as the percent of untreated control cells.

O=C(O)C=CC(=O)N1CC(=Cc2ccccc2Cl)C(=O)C(=Cc2ccccc2Cl)C1 [Compound 29, 4-[3,5-Bis-(2-chlorobenzylidene)-4-oxo-piperidin-1-yl]-4-oxo-2-butenoic acid]
potency of antiproliferative action [1]: enhanced the potency of antiproliferative action
anti-proliferative activity in H441 cells [2]: more potent than curcumin and another synthetic curcuminoid EF24
H441 cells surviving ([2]; 24 h treatment with 10 μM): Less than 40%
potency of antiproliferative action [3]: enhanced the potency of antiproliferative action
effect on normal lung fibroblasts [4]: essentially remained unscathed
potency of antiproliferative action [5]: enhanced the potency of antiproliferative action
ROS production [6]: did not increase ROS production in normal lung fibroblasts
caspase-3 activation level (immunoblotting) ([7]; H441 cell lysates): no change in its activation level
cleavage-based caspase activation (Apo-One caspase-3/7 assay) ([7]; H441 cells): no cleavage-based caspase activation was seen
GSH/GSSG ratio (H441 cells): strong dose-dependent reduction of the GSH/GSSG ratio
